Test results taken from patent US20230219962A1, “PYRAZOLO[4,3-d]PYRIMIDINE DERIVATIVES AND METHODS OF USE THEREOF FOR THE TREATMENT OF CELLULAR PROLIFERATIVE DISORDERS” (Merck Sharp & Dohme LLC, priority 2020, published 2023).

Tests used:
hTLR7 = target: T1, hTLR7 (Homo sapiens, UniProt Q9NYK1); assay: Human TLR7 Reporter Assay; format: cell-based; details: HEK-Blue hTLR7 cells, 16 hours, normalized to CL097 (6 μM) and DMSO
T1 construct: host or cells: HEK-Blue hTLR7 cells (HEK293-derived, own knowledge)
T1 sequence (Q9NYK1 27-1049): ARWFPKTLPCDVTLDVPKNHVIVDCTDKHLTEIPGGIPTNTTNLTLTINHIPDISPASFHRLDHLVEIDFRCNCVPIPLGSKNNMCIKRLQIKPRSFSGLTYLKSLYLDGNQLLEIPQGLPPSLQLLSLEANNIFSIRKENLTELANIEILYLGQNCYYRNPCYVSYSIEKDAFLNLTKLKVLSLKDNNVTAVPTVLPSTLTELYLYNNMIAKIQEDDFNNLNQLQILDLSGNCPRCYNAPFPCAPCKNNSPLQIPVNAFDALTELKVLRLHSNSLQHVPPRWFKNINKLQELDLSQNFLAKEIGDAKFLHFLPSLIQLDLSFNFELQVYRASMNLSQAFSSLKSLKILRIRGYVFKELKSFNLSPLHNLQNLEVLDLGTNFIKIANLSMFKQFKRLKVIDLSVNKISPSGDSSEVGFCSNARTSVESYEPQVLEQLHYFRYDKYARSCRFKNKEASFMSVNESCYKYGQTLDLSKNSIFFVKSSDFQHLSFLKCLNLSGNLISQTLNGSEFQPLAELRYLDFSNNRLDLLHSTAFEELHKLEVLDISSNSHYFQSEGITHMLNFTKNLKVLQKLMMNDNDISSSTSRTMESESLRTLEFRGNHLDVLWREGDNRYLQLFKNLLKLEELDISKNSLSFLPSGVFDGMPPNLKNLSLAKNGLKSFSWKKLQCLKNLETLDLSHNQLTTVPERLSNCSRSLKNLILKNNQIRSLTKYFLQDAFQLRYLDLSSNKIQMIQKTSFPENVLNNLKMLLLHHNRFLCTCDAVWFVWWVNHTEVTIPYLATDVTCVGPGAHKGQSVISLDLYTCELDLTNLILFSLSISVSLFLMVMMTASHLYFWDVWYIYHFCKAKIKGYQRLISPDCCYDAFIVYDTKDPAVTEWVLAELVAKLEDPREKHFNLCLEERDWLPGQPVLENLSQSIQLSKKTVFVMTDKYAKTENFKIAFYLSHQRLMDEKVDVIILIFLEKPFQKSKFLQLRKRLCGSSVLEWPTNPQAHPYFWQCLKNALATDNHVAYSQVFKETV
Description: (§1) HEK-Blue™ hTLR7 cells (Invivogen, San Diego, Calif.) were maintained at 37° C./5% CO2/90% relative humidity in Dulbecco's Modified Eagle's Medium with 10% fetal bovine serum, 100 units/mL penicillin, 100 μg/mL streptomycin, 100 μg/mL normocin, 10 μg/mL blasticidin, and 100 μg/mL zeocin. HEK-Blue™ hTLR7 cells were maintained at 10-90% confluence and used before passage 20. For this assay, test compounds were dissolved in DMSO, and 10-point serial 3-fold dilution series in DMSO were prepared in Echo Qualified 384-well Polypropylene Microplates (Labcyte, San Jose, Calif.). Assay plates (384-well flat, clear bottom, black polystyrene TC-treated microtiter plates; Corning, Corning, N.Y.) were prepared by dispensing 150 nL of test compounds, high control (CL097; Invivogen, San Diego, Calif.), and low control (DMSO) by ECHO acoustic dispenser (Labcyte, San Jose Calif.) followed by addition of 5 μL of HEK-Blue™ Detection assay media (Invivogen, San Diego, Calif.). HEK-Blue™ hTLR7 cells in HEK-Blue™ Detection assay media (20,000 cells per well in 45 μL of media) were added to the assay plate and incubated for 16 hours at 37° C./5% CO2/90% relative humidity. For detection, assay plates were removed from the incubator, allowed to cool to ambient temperature, centrifuged at 200×g for 1 minutes, and read with an EnSpire Multimode Plate Reader (Perkin Elmer, Waltham, Mass.) for absorbance at 620 nm. Test compound effects were normalized to the window defined by the controls, CL097 (6 μM), and DMSO. Calculated % effects were fit using a 4-parameter algorithm, and EC50 was reported.

hTLR8 = target: T2, hTLR8 (Homo sapiens, UniProt Q9NR97); assay: Human TLR8 Reporter Assay; format: cell-based; details: HEK-Blue hTLR8 cells, 16 hours, normalized to tl8-506 (1 μM) and DMSO
T2 construct: host or cells: HEK-Blue hTLR8 cells (HEK293-derived, own knowledge)
T2 sequence (Q9NR97 27-1041): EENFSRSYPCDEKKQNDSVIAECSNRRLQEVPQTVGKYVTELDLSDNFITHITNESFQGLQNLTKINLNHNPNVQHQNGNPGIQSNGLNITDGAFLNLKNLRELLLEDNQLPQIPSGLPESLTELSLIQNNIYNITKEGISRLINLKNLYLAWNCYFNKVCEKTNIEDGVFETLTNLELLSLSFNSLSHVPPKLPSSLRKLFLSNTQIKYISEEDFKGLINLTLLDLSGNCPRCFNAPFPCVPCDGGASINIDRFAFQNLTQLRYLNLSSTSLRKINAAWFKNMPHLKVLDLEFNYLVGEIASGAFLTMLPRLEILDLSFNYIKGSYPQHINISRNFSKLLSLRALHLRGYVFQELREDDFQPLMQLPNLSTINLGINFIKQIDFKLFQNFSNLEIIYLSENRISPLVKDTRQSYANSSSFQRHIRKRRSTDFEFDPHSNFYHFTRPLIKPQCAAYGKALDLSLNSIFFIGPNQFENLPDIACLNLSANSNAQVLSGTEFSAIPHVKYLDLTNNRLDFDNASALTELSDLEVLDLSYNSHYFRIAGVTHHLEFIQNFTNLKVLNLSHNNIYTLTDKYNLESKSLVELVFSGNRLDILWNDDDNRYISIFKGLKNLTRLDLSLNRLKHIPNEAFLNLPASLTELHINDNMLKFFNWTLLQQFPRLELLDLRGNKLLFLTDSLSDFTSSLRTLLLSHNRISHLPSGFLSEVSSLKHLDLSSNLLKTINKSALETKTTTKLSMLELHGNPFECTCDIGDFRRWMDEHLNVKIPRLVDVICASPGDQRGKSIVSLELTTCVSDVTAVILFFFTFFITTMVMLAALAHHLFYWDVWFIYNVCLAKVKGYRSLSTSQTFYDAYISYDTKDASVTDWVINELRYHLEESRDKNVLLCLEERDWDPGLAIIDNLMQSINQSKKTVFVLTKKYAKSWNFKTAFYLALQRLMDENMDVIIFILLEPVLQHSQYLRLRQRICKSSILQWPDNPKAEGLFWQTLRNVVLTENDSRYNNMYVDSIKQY
Description: as §1, with “hTLR8” for “hTLR7”, “(tl8-506;” for “(CL097;”, “tl8-506 (1” for “CL097 (6”

| EC50 (hTLR7) | EC50 (hTLR8) | Structure (SMILES) |
| --- | --- | --- |
| 476 nM | 809 nM | CCCCNc1nc(N)nc2cn(Cc3ncc(CNC)cc3OC)nc12 [Compound 163] |
| 439 nM | 692 nM | CCCCNc1nc(N)nc2cn(Cc3ccc(CN)cc3OC)nc12 [Compound 137] |
| 57.7 nM | 106 nM | CCCCNc1nc(N)nc2cn(Cc3ccc(C(C)NC)cc3OC)nc12 (centres unmarked) [Compound 193] |
| 95.2 nM | 633 nM | CCCCNc1nc(N)nc2cn(Cc3ccc(CCO)cc3OC)nc12 [Compound 128] |
| 2270 nM | 11400 nM | CCCCNc1nc(N)nc2cn(Cc3ccc(C(N)CCN)cc3OC)nc12 (centres unmarked) [Compound 229] |
| 180 nM | 265 nM | CCCCNc1nc(N)nc2cn(Cc3ccc(CCNC)cc3OC)nc12 [Compound 147] |
| 72.7 nM | 328 nM | CCCCNc1nc(N)nc2cn(Cc3c(OC)cccc3OC)nc12 [Compound 5] |
| 988 nM | 4200 nM | CCCCNc1nc(N)nc2cn(Cc3ccc(N4CC5(CNC5)C4)cc3OC)nc12 [Compound 116] |
| 154 nM | 2600 nM | CCCCNc1nc(N)nc2cn(Cc3ccc(C4CCCN4)cc3OC)nc12 (centres unmarked) [Compound 239] |
| 344 nM | 438 nM | CCCCNc1nc(N)nc2cn(Cc3ccc(CN4CCNCC4)cc3OC)nc12 [Compound 61] |

The next lines start with the compound.

| Structure (SMILES) | EC50 (hTLR7) | EC50 (hTLR8) |
| --- | --- | --- |
| CCCCNc1nc(N)nc2cn(Cc3ccc(CN4CCN(C(=O)CCN5C(=O)C=CC5=O)CC4)cc3)nc12 [Compound 119] | 6650 nM | 22500 nM |
| CCCCNc1nc(N)nc2cn(Cc3c(OC)ccc(CNC(=O)C4CCC(CN5C(=O)C=CC5=O)CC4)c3OC)nc12 (centres unmarked) [Compound 81] | > 29900 nM | – |
| COCCNc1nc(N)nc2cn(Cc3c(OC)cccc3OC)nc12 [Compound 46] | 353 nM | 1080 nM |
| CCCCNc1nc(N)nc2cn(Cc3c(OC)cc(SC[C@H](N)C(=O)O)cc3OC)nc12 [Compound 230] | 898 nM | 8840 nM |
| COc1cccc(OC)c1Cn1cc2nc(N)nc(NCCC(C)O)c2n1 (centres unmarked) [Compound 51] | 4730 nM | > 29900 nM |
| CCCCNc1nc(N)nc2cn(Cc3cc(CN4CC(CN)C4)ccc3OC)nc12 [Compound 151] | 2260 nM | 869 nM |
| CCCCNc1nc(N)nc2cn(Cc3ccc(C4CCNCC4)nc3OC)nc12 [Compound 138] | 191 nM | 1780 nM |
| CCC[C@@H](CO)Nc1nc(N)nc2cn(Cc3ccc(N4CCNCC4)cc3OC)nc12 [Compound 150] | 1620 nM | 1640 nM |
| CCC[C@@H](CO)Nc1nc(N)nc2cn(Cc3c(OC)cc(CN(C)CCNC(=O)c4cccnc4)cc3OC)nc12 [Compound 218] | 6360 nM | 1490 nM |
| CCCCC(CCO)Nc1nc(N)nc2cn(Cc3ccccc3OC)nc12 (centres unmarked) [Compound 16] | 86.2 nM | > 9980 nM |
| CCCCNc1nc(N)nc2cn(Cc3cc(C)nn3C)nc12 [Compound 173] | 246 nM | 2730 nM |
| CCCCNc1nc(N)nc2cn(Cc3ccc(CN)cn3)nc12 [Compound 142] | 354 nM | 3220 nM |
| CCCCNc1nc(N)nc2cn(Cc3ccc(CN4CCNCC4)cc3)nc12 [Compound 112] | 1570 nM | 19900 nM |
| CCCCNc1nc(N)nc2cn(Cc3c(OC)cc(NCCN4C(=O)C=CC4=O)cc3OC)nc12 [Compound 134] | 1520 nM | 14400 nM |
| CCCCNc1nc(N)nc2cn(Cc3nc(C)no3)nc12 [Compound 170] | 1560 nM | 4430 nM |
| CCC[C@@H](CO)Nc1nc(N)nc2cn(Cc3c(OC)cccc3OC)nc12 [Compound 108] | 29.3 nM | 116 nM |
| CCCCNc1nc(N)nc2cn(Cc3c(OC)cccc3OCCCCO)nc12 [Compound 208] | 299 nM | 906 nM |
| CCCCNc1nc(N)nc2cn(Cc3ncccn3)nc12 [Compound 122] | 288 nM | 1400 nM |
| CCCCNc1nc(N)nc2cn(Cc3ccnn3CC)nc12 [Compound 177] | 681 nM | 2810 nM |
| C=CCN(C)Cc1cc(OC)c(Cn2cc3nc(N)nc(NC(C)CCC)c3n2)c(OC)c1 (centres unmarked) [Compound 158] | 21.8 nM | 178 nM |
| C=CCN(C)Cc1cc(OC)c(Cn2cc3nc(N)nc(N[C@@H](C)CCC)c3n2)c(OC)c1 [Compound 183] | 30.8 nM | 380 nM |
| CCCCNc1nc(N)nc2cn(CCCCN)nc12 [Compound 42] | > 29900 nM | 2980 nM |
| CCCCNc1nc(N)nc2cn(Cc3ccccc3Cl)nc12 [Compound 4] | 578 nM | 6540 nM |
